What is called IC50 is the point on the concentration scale where inhibition reaches its midpoint.

The target of test [1] is KDM7A dual domain (Homo sapiens, UniProt Q6ZMT4). Briefly: MALDI-TOF-MS KDM7 activity assay (H3 peptide demethylation). The test is classed as biochemical. The protocol: Fig. 5 KDM7 PHD-finger inhibition by OC9 modulates dual domain JmjC activity. (a) (i–iii) OC9 inhibits demethylation of H3K9me2, with or without K4me3, by KDM7B (0.4 μM) on H3 peptide (2.5 μM). […] (b) (i–iii) OC9 enhances demethylation of H3K4me3K9me2 by KDM7A (0.55 μM) on H3 peptide (2.5 μM), and (iv) enhances KDM7A (0.5 μM) demethylation of calf histone extracts (50 μg). […] Inset MALDI-TOF-MS overlays are from respective highest OC9 concentration points compared to DMSO alone. KDM7 PHD-finger only proteins had no demethylase activity (Fig. S40 ^†). Calf histone H3K9me2 was quantitated relative to H4 band intensities at each time point, normalised to DMSO at t = 0. Full Western blots available in Fig. S42. ^† Relative rates (Krel min^−1) from a one-phase decay model, average from N = 3 independent experiments. […] The enzyme heading of the panel (KDM7B / KDM7A) was put in front of them. / DMSO is the vehicle control. Its printed rates (0.30 min^-1 in a, 0.04 min^-1 in b) are included because they are printed with its name.
In contrast to KDM7B, KDM7A lacks activity against H3K4me3K9me2, but demethylates H3_1–21K9me2.[57] OC9, however, restored the activity of KDM7A against H3_1–21K4me3K9me2 from <5% to a level (∼30%) that approached demethylation on H3_1–21K9me2 with DMSO alone (∼40%) (Fig. 5b and S39 ^†). […]

Test [2] deals with full-length KDM7B. Nature of the test: Pull-down from transfected HEK293T nuclear lysates. The following applies: 100-fold excess competitor. The format is binding. The protocol:
HEK293T cells were transiently transfected with either a full-length wild-type KDM7B, or an aromatic cage inactivating mutant KDM7B (Y14A, W29A).[20]
Capture was performed with 1 μM probe incubated in pre-cleared lysate, recovered with streptavidin-conjugated magnetic beads, then washed and eluted by heating in denaturing solution. 100-fold excess OC9 or OC9 V10A were used as competitors. […] The upper left quadrant indicates >5-fold difference in recovered protein (based on T-test difference of mean log 2 (LFQ) values) and p-value threshold <0.05.

Test [3] concerns the target T1, KDM7B PHD (Homo sapiens, UniProt Q9UPP1).
T1 construct: KDM7B 1-66; made in house
T1 sequence (Q9UPP1 1-66 isoform Q9UPP1-2): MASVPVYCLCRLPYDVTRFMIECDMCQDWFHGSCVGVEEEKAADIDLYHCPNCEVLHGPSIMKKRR
Briefly: BLI binding. The following applies: read-out: BLI KD, KDM7B PHD-finger. From the text:
Figure S2. BLI for KDM7 proteins with cyclic peptides.
BLI traces for b inding to KDM7 protein domains immobilised by C-terminal His -tag on Ni -NTA
biosensors, against cyclic peptides. Response trace for each peptide concentration is represented by
a different colour, with the fitted curves overlaid in black.
concentration plotted, with 2-fold dilutions thereafter. Dual domain = PHD+JmjC. […]
against KDM7 and other protein domains. t1/2 = half life (0.693 / Koff)
(1 picture or pasted object on this page, not shown here)
Background: Biolayer interferometry detects binding as a change in optical thickness at a sensor tip.

Test [4] addresses T2, KDM7B PHD-finger (Homo sapiens, UniProt Q9UPP1).
T2 construct: KDM7B 1-66; His-tag (C); made in house
T2 sequence (Q9UPP1 1-66 isoform Q9UPP1-2): T1 sequence (Q9UPP1 1-66 isoform Q9UPP1-2)
Nature of the test: Protein NMR affinity assessment. The test is classed as binding. The following applies: read-out: NMR pKD, KDM7B PHD-finger (converted).

Peptide text beside a SMILES is read from it.

Chain of KDM7A dual domain (Q6ZMT4 38-480 limits assumed): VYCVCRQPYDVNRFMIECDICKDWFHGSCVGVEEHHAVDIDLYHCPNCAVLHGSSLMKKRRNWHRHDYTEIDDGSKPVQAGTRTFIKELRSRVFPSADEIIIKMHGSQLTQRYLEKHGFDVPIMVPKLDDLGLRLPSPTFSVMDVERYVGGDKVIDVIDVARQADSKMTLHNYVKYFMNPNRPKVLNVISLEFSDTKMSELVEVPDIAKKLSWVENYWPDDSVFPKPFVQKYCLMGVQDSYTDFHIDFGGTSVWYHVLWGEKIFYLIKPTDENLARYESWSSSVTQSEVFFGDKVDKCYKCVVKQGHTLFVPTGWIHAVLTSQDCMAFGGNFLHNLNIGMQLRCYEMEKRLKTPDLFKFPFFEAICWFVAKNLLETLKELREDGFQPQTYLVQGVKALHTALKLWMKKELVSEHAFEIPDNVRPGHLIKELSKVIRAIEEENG

The molecule `CN(C)NC(=O)CCC(=O)O` [DAM, daminozide, reference compound] gave an IC50 in test [1] of 0.251 µM.
As for `CC(C)C[C@@H]1NC(=O)[C@H](Cc2ccc(O)cc2)NC(=O)[C@H](Cc2ccc(O)cc2)NC(=O)CSC[C@@H](C(N)=O)NC(=O)[C@H]([C@@H](C)O)NC(=O)[C@H](CCCNC(=N)N)NC(=O)[C@H](Cc2ccccc2)NC(=O)[C@H](C)NC(=O)[C@H](CO)NC(=O)[C@@H]2CCCN2C(=O)[C@H](Cc2ccc(O)cc2)NC(=O)[C@@H]2CCCN2C(=O)[C@H](Cc2c[nH]cn2)NC(=O)[C@H]([C@@H](C)O)NC1=O` [V10A] (HELM PEPTIDE1{[O=C(C[*:3])[*:2]].Y.Y.L.T.H.P.Y.P.S.A.F.R.T.C.[am]}$PEPTIDE1,PEPTIDE1,1:R3-15:R3$$$V2.0; C-terminus assumed), the “competition of OC9-Bt pull-down of KDM7B” value in test [2] was “did not reduce recovery so substantially”.
As to `CC(C)C[C@@H]1NC(=O)[C@H](Cc2ccc(O)cc2)NC(=O)[C@H](Cc2ccc(O)cc2)NC(=O)CSC[C@@H](C(N)=O)NC(=O)[C@H]([C@@H](C)O)NC(=O)[C@H](CCCNC(=N)N)NC(=O)[C@H](Cc2ccccc2)NC(=O)[C@@H](C(C)C)NC(=O)[C@H](CO)NC(=O)[C@@H]2CCCN2C(=O)[C@H](Cc2ccc(O)cc2)NC(=O)[C@@H]2CCCN2C(=O)[C@H](Cc2c[nH]cn2)NC(=O)[C@H]([C@@H](C)O)NC1=O` [OC9 V10DV] (HELM PEPTIDE1{[O=C(C[*:3])[*:2]].Y.Y.L.T.H.P.Y.P.S.[dV].F.R.T.C.[am]}$PEPTIDE1,PEPTIDE1,1:R3-15:R3$$$V2.0; C-terminus assumed), the Kd is more than 10 µM in test [3] and more than 501 µM in test [4].

(Values after publication PMC10321576, “Cyclic peptides target the aromatic cage of a PHD-finger reader domain to modulate epigenetic protein function” (Chemical Science, 2023).)
